Laboratory results taken from patent US20100144819A1, “Synergistic Methods for Control of Pests” (FMC A[…]. LTD., priority 2008, published 2010).

Assays:
[1] = system: American cockroach (Periplaneta americana); assay: American cockroach mortality on treated filter paper; type: in vivo; conditions: 24 h
Excerpt: (§1) The presence of a synergistic effect between the two active ingredients is established with the aid of the Colby equation (see Colby, S. R., “Calculating Synergistic and Antagonistic Responses of Herbicide Combinations”, Weeds 1967, 15, pg 20-22): E=X+Y−(XY/100).
(§2) Using the method of Colby, the presence of asynergistic interaction between two active ingredients is established by first calculating the expected activity, ‘E’, of the mixture based on activities of the two components applied alone. If ‘E’ is lower than the observed activity, synergy is present. In the equation above, ‘X’ is the percentage control observed when bifenthrin applied alone at rate ‘x’. The ‘Y’ term is percentage control observed when fipronil applied alone at rate ‘y’. The equation calculates ‘E’, the expected activity of the mixture of ‘X’ at rate ‘x’ with ‘Y’ at rate ‘y’ if their effects are strictly additive and no interaction has occurred.
The compositions of the present invention were tested for American cockroach (Periplaneta americana) activity in the following manner:
Test solutions were made by dissolving technical grade bifenthrin and fipronil in acetone to provide appropriate rates of application of bifenthrin and fipronil alone, as well as combinations of bifenthrin and fipronil. The active ingredient concentrations tested were from 10 part per million (0.01 mg of active ingredient/mL or 0.01 g/L) to 1000 parts per million (1.0 mg of active ingredient/mL or 1.0 g/L), four replicates per rate. In a fume cabinet, one milliliter of a test solution was applied to a 9 cm Whatman® 2 qualitative filter paper using a calibrated pipette. The application started at the center of the filter paper with individual drops being applied in an outward circular motion so that the entire filter paper was uniformly treated. Acetone only (one mL) was applied in the same manner to provide an untreated control (UTC). The treated filter papers were allowed to dry for two hours. The dried, treated or untreated filter paper was placed into a plastic cup having a base diameter of 90 mm, in which the upper portion of the walls of the plastic cup were coated with a fluoropolymer resin (PFTE-30) insect barrier (Fluoron® available from BioQuip Products Inc.) to prevent the insects from climbing out of the container. Ten late instar, healthy and active American cockroaches (Periplaneta americana) were momentarily immobilized using carbon dioxide and then placed onto the filter paper. The top of the plastic containers were covered with gauze to contain the cockroaches. The plastic containers were maintained at a temperature of 25° C. to 30° C. at ambient relative humidity out of direct sunlight. American cockroach mortality was assessed after 24 hours by counting the number of alive and the number of knocked down/dead cockroaches.
(§3) In order to compare the pesticidal effectiveness of the individual and combination treatments the LC 50 and LC 90 values (lethal concentration in ppm that would effectively knock down/kill 50% or 90% of the test pests) were calculated. In calculating the LC values for the various mixtures of bifenthrin and fipronil, probit analysis was conducted on the bifenthrin in concentration of the mixture. […] The values calculated from the data of Table 2 are in Table 2A below.

[2] = system: German cockroach (Blatella germanica); assay: German cockroach mortality on treated filter paper; type: in vivo, Blattella germanica; conditions: 24 h
Excerpt: as §1, §2
The compositions of the present invention were tested for German cockroach (Blatella germanica) activity in the following manner.
Test solutions were made by dissolving technical grade bifenthrin and fipronil in acetone to provide appropriate rates of application of bifenthrin and fipronil alone, as well as combinations of bifenthrin and fipronil. The active ingredient concentrations tested were from 50 parts per million (0.05 mg of active ingredient/mL or 0.05 g/L) to 500 parts per million (0.5 mg of active ingredient/mL or 0.5 g/L), four replicates per rate. In a fume cabinet, one milliliter of a test solution was applied to a 9 cm Whatman® 2 qualitative filter paper using a calibrated pipette. The application started at the center of the filter paper with individual drops being applied in an outward circular motion so that the entire filter paper was uniformly treated. Acetone only (one mL) was applied in the same manner to provide an untreated control (UTC). The treated filter papers were allowed to dry for two hours. The dried, treated or untreated filter paper was placed into a plastic Petri dish and ten late instar, healthy and active German cockroaches (Blattella germanica) were momentarily immobilized using carbon dioxide and then placed onto the filter paper. The lid of each Petri dish was put on to contain the cockroaches. The Petri dishes were maintained at a temperature of 25° C. to 30° C. at ambient relative humidity out of direct sunlight. German cockroach mortality was assessed after 24 hours by counting the number of alive and the number of knocked down/dead cockroaches.
as §3, with “fipronil” for “bifenthrin in”, “1” for “2”, “1A” for “2A”

[3] = system: black house spider (Badumna insignis); assay: Black house spider mortality on treated pine plywood; type: in vivo; conditions: suspension concentrate diluted in water, 24 h
Excerpt: as §1, §2
The compositions of the present invention were tested for black house spider (Badumna insignis) activity in the following manner:
Formulations of the test compounds were made as follows: • 1).
The testing was conducted on pine plywood surfaces that had dimensions of 20 cm×20 cm. The above formulations were diluted in water to achieve the desired concentration rate in grams of active ingredient per liter prior to application to the pine plywood. Each treatment was applied using an airbrush sprayer and compressed air as the propellant. The equipment was calibrated prior to use and the treatments were applied to the pine plywood surfaces at a rate of 1 L/10 m^2 (4 mL of final test solution per 20 cm×20 cm pine plywood surface)'. For example, in order to obtain a application rate of […] of active ingredient per 10 m^2, 1.25 mL of the fipronil formulation 1) which contained 100 gram per liter suspension concentrate formulation of fipronil, was diluted in 1 liter of water to make a final test solution. Four mL of the final test solution was sprayed onto the pine plywood surface. The treated pine plywood was allowed to air dry at ambient temperature by storing horizontally away from direct sunlight. Three black house spiders, medium to large in size collected from the field 1 to 2 days prior to testing, were placed separately under untreated portion cups (7 cm diameter by 7 cm deep) on the treated pine plywood surfaces. The untreated portion cups provided an opportunity for the spiders to seek an untreated area. The spiders were assessed after 24 hours exposure by counting the number of alive and the number of knocked down/dead spiders. There were three replications of each treatment.

[4] = probit analysis of Table 2 data, mixtures as bifenthrin:fipronil
[5] = probit analysis of Table 1 data, mixtures as bifenthrin:fipronil

N#Cc1nn(-c2c(Cl)cc(C(F)(F)F)cc2Cl)c(N)c1[S+]([O-])C(F)(F)F [Fipronil, (5-amino-[2,6-dichloro-4(trifluoromethyl)phenyl]-4-[(1R,S)-(trifluoromethyl)sulfinyl]-1H-pyrazole-3-carbonitrile]
% Observed Control ([1]; 10 ppm (0.01 mg/mL)): 0% | Mortality Rep 1 dead/alive ([1]; 10 ppm (0.01 mg/mL)): 0/10 | Mortality Rep 2 dead/alive ([1]; 10 ppm (0.01 mg/mL)): 0/10 | Mortality Rep 3 dead/alive ([1]; 10 ppm (0.01 mg/mL)): 0/10 | Mortality Rep 4 dead/alive ([1]; 10 ppm (0.01 mg/mL)): 0/10 | % Observed Control ([1]; 20 ppm (0.02 mg/mL)): 0% | Mortality Rep 1 dead/alive ([1]; 20 ppm (0.02 mg/mL)): 0/10 | Mortality Rep 2 dead/alive ([1]; 20 ppm (0.02 mg/mL)): 0/10 | Mortality Rep 3 dead/alive ([1]; 20 ppm (0.02 mg/mL)): 0/10 | Mortality Rep 4 dead/alive ([1]; 20 ppm (0.02 mg/mL)): 0/10 | % Observed Control ([1]; 25 ppm (0.025 mg/mL)): 0% | Mortality Rep 1 dead/alive ([1]; 25 ppm (0.025 mg/mL)): 0/10 | Mortality Rep 2 dead/alive ([1]; 25 ppm (0.025 mg/mL)): 0/10 | Mortality Rep 3 dead/alive ([1]; 25 ppm (0.025 mg/mL)): 0/10 | Mortality Rep 4 dead/alive ([1]; 25 ppm (0.025 mg/mL)): 0/10 | % Observed Control ([1]; 50 ppm (0.05 mg/mL)): 0% | Mortality Rep 1 dead/alive ([1]; 50 ppm (0.05 mg/mL)): 0/10 | Mortality Rep 2 dead/alive ([1]; 50 ppm (0.05 mg/mL)): 0/10 | Mortality Rep 3 dead/alive ([1]; 50 ppm (0.05 mg/mL)): 0/10 | Mortality Rep 4 dead/alive ([1]; 50 ppm (0.05 mg/mL)): 0/10 | % Observed Control ([1]; 100 ppm (0.1 mg/mL)): 2.5% | Mortality Rep 1 dead/alive ([1]; 100 ppm (0.1 mg/mL)): 0/10 | Mortality Rep 2 dead/alive ([1]; 100 ppm (0.1 mg/mL)): 0/10 | Mortality Rep 3 dead/alive ([1]; 100 ppm (0.1 mg/mL)): 0/10 | Mortality Rep 4 dead/alive ([1]; 100 ppm (0.1 mg/mL)): 1/9 | % Observed Control ([1]; 125 ppm (0.125 mg/mL)): 2.5% | Mortality Rep 1 dead/alive ([1]; 125 ppm (0.125 mg/mL)): 0/10 | Mortality Rep 2 dead/alive ([1]; 125 ppm (0.125 mg/mL)): 0/10 | Mortality Rep 3 dead/alive ([1]; 125 ppm (0.125 mg/mL)): 0/10 | Mortality Rep 4 dead/alive ([1]; 125 ppm (0.125 mg/mL)): 1/9 | % Observed Control ([1]; 200 ppm (0.2 mg/mL)): 2.5% | Mortality Rep 1 dead/alive ([1]; 200 ppm (0.2 mg/mL)): 0/10 | Mortality Rep 2 dead/alive ([1]; 200 ppm (0.2 mg/mL)): 0/10 | Mortality Rep 3 dead/alive ([1]; 200 ppm (0.2 mg/mL)): 1/9 | Mortality Rep 4 dead/alive ([1]; 200 ppm (0.2 mg/mL)): 0/10 | % Observed Control ([1]; 250 ppm (0.25 mg/mL)): 45% | Mortality Rep 1 dead/alive ([1]; 250 ppm (0.25 mg/mL)): 0/10 | Mortality Rep 2 dead/alive ([1]; 250 ppm (0.25 mg/mL)): 8/2 | Mortality Rep 3 dead/alive ([1]; 250 ppm (0.25 mg/mL)): 7/3 | Mortality Rep 4 dead/alive ([1]; 250 ppm (0.25 mg/mL)): 3/7 | % Observed Control ([1]; 500 ppm (0.5 mg/mL)): 45% | Mortality Rep 1 dead/alive ([1]; 500 ppm (0.5 mg/mL)): 1/9 | Mortality Rep 2 dead/alive ([1]; 500 ppm (0.5 mg/mL)): 8/2 | Mortality Rep 3 dead/alive ([1]; 500 ppm (0.5 mg/mL)): 5/5 | Mortality Rep 4 dead/alive ([1]; 500 ppm (0.5 mg/mL)): 4/6 | LC 50 [1, 4]: 1013 ppm | LC 90 [1, 4]: 1742 ppm | % Observed Control ([2]; 50 ppm (0.05 mg/mL)): 22.5% | Mortality Rep 1 dead/alive ([2]; 50 ppm (0.05 mg/mL)): 7/3 | Mortality Rep 2 dead/alive ([2]; 50 ppm (0.05 mg/mL)): 1/9 | Mortality Rep 3 dead/alive ([2]; 50 ppm (0.05 mg/mL)): 0/10 | Mortality Rep 4 dead/alive ([2]; 50 ppm (0.05 mg/mL)): 1/9 | % Observed Control ([2]; 100 ppm (0.1 mg/mL)): 42.5% | Mortality Rep 1 dead/alive ([2]; 100 ppm (0.1 mg/mL)): 6/4 | Mortality Rep 2 dead/alive ([2]; 100 ppm (0.1 mg/mL)): 3/7 | Mortality Rep 3 dead/alive ([2]; 100 ppm (0.1 mg/mL)): 4/6 | Mortality Rep 4 dead/alive ([2]; 100 ppm (0.1 mg/mL)): 4/6 | % Observed Control ([2]; 250 ppm (0.25 mg/mL)): 100% | Mortality Rep 1 dead/alive ([2]; 250 ppm (0.25 mg/mL)): 10/0 | Mortality Rep 2 dead/alive ([2]; 250 ppm (0.25 mg/mL)): 10/0 | Mortality Rep 3 dead/alive ([2]; 250 ppm (0.25 mg/mL)): 10/0 | Mortality Rep 4 dead/alive ([2]; 250 ppm (0.25 mg/mL)): 10/0 | % Observed Control ([2]; 500 ppm (0.5 mg/mL)): 100% | Mortality Rep 1 dead/alive ([2]; 500 ppm (0.5 mg/mL)): 10/0 | Mortality Rep 2 dead/alive ([2]; 500 ppm (0.5 mg/mL)): 10/0 | Mortality Rep 3 dead/alive ([2]; 500 ppm (0.5 mg/mL)): 10/0 | Mortality Rep 4 dead/alive ([2]; 500 ppm (0.5 mg/mL)): 10/0 | LC 50 [2, 5]: 102 ppm | LC 90 [2, 5]: 179 ppm | Observed % Control ([3]; 0.125 g ai/L at 1 L/10 m^2): 0.0% | Observed % Control ([3]; 0.25 g ai/L at 1 L/10 m^2): 0.0% | Observed % Control ([3]; 0.5 g ai/L at 1 L/10 m^2): 0.0%
